Results as given in BigSolDB 2.1.

O=C(NC[C@H]1CN(c2ccc(N3CCOCC3=O)cc2)C(=O)O1)c1ccc(Cl)s1
solubility (mole fraction)
Details | 278.15 K | 283.15 K | 288.15 K | 293.15 K | 298.15 K | 303.15 K | 308.15 K | 313.15 K | 318.15 K
in DMAc | 0.00978 | 0.0108 | 0.0119 | 0.0131 | 0.0144 | 0.0158 | 0.0173 | 0.0189 | 0.0206
in DMF | 0.00586 | 0.00662 | 0.00747 | 0.0084 | 0.00943 | 0.0106 | 0.0118 | 0.0132 | 0.0147
in THF | 0.000205 | 0.00023 | 0.000263 | 0.00029 | 0.000328 | 0.000359 | 0.000401 | 0.00045 | 0.000511
in ethyl acetate | 5.17e-05 | 5.93e-05 | 6.79e-05 | 7.74e-05 | 8.81e-05 | 0.0001 | 0.000113 | 0.000128 | 0.000144
